Data reported in article PMC8953385, “2-Styrylchromones: Cytotoxicity and Modulation of Human Neutrophils’ Oxidative Burst” (Pharmaceuticals, 2022).

What was measured:
human neutrophils = test: Annexin V/PI flow cytometric assay of neutrophils’ viability; format: cell-based; conditions: for Higher 2-SC concentration that did not affect human neutrophils’ viability: annexin V/PI assay, 40 min incubation at 37 °C
Text: (§1) Following the Declaration of Helsinki and the approval of patient-related procedures and protocols by the Ethics Committee of Centro Hospitalar do Porto, Portugal, venous blood was collected from healthy human blood donors, after informed consent. The blood was stored into K3EDTA vacuum tubes after antecubital venipuncture of the donors. In order to obtain the isolated neutrophils, the density gradient centrifugation method was applied, as previously reported, with modifications. In brief, in a 15 mL polypropylene tube, 3 mL of histopaque 1119 were added followed by 3 mL of histopaque 1077 and finally, 4.5 mL of the collected blood were slowly added. Each tube was centrifuged at 900× g at 20 °C for 30 min, with a medium acceleration and deceleration speed. Following centrifugation, the neutrophils’ portion was harvested, and PBS was added to double the volume. The neutrophils’ suspension was then centrifuged at 850× g at 4 °C for 5 min, using a maximum acceleration and deceleration speed. The supernatant was discarded, and the neutrophils’ pellet was resuspended in PBS and afterward milli-Q water was added to lyse the residual erythrocytes. The tube was gently homogenized and after a few minutes, 3% NaCl was added to restore isotony, and then centrifuged again at 850× g at 4 °C for 5 min, using a maximum acceleration and deceleration speed. The supernatant was discarded, and a neutrophils’ pellet was obtained. After isolation, the neutrophils’ pellet was resuspended in the incubation media, tris-glucose buffer (25 mM Trizma® base, 5.5 mM D-glucose, 140 mM NaCl, 1.26 mM CaCl2, 0.81 mM MgSO4, 5.37 mM KCl, pH = 7.4). Neutrophils’ suspension was kept on ice, under soft shaking, until use. The trypan blue exclusion method was used to determine cells’ yield and viability.
The effect of the studied 2-SC on neutrophils’ viability was assessed by flow cytometry, after simultaneous staining with FITC Annexin V and propidium iodide (PI) (Figure S1), as previously reported by our research group, with modifications. After isolation, neutrophils (1 × 10^6 cells/mL) were incubated with 2-SC (up to 100.00 μM) or DMSO for 40 min, at 37 °C, in a 48-well plate. At the end of incubation, the content of each well was transferred to conical microtubes and centrifuged at 400× g at 20 °C for 5 min. After discarding the supernatant, the neutrophils’ pellet was resuspended in PBS and centrifuged under the previous conditions. Once the supernatant was removed, the pellet was resuspended in 10× diluted binding buffer, and then PI and annexin V were added. This mixture was incubated in the dark at room temperature for 15 min, and finally, 10× diluted binding buffer was added. In a flow cytometer, the fluorescence signal, of at least 10,000 cells/sample, were collected in logarithmic mode and followed in channels 1 and 3. The green fluorescence corresponding to annexin V FITC was accompanied in channel 1 and plotted as a histogram of FL1 staining, whereas the fluorescence corresponding to PI was monitored in channel 3 and plotted in the same histogram but as FL3 staining. The collected data were analyzed with the BD Accuri™ C6 software. The data analysis was restricted to the neutrophils’ population. Thus, according to the light-scattering properties of neutrophils (in a forward versus side scatter plot), a polygon gate was drawn, where debris and other blood cells were excluded. The effect of 2-SC on neutrophils’ viability was expressed as a relative percentage of apoptotic and/or necrotic cells when compared to the control (without 2-SC).

[1] = system: human neutrophils’ oxidative burst; test: Neutrophils’ oxidative burst, PMA stimulation, luminol chemiluminescence; format: cell-based; conditions: for IC50: PMA 160.00 nM, luminol 500.00 μM, mean ± SEM, read-out: IC50, inhibition of human neutrophils’ oxidative burst; for inhibition at 50 µM: 50.00 µM (highest tested concentration); for inhibition at 25 µM: 25.00 µM (highest tested concentration); for Times less active than C8 (oxidative burst): comparison of IC50 values with C8
Text: as §1
The effect of 2-SC on the modulation of neutrophils’ oxidative burst was assessed after the stimulation of these cells with PMA by monitoring the oxidation of chemiluminescent probe, luminol, by the generated reactive species (Figure S2), according to a previously described methodology. Briefly, neutrophils (1 × 10^6 cells/mL) were pre-incubated with luminol (500.00 μM), and 2-SC (0.00–100.00 μM) or DMSO, at the final concentrations indicated. After this pre-incubation, at 37 °C for 5 min, PMA (160.00 nM) was added, and in turn, neutrophils’ stimulation was initiated. Kinetic readings were immediately initiated and followed for 40 min, at 37 °C, in a microplate reader. The arbitrary chemiluminescence value was taken at the peak of the curve, and the results were expressed as the inhibition percentage of luminol oxidation.
GraphPad Prism 6 software was used to plot the curves of percentage of inhibition versus concentrations of compound, from which the concentration that produces 50% of inhibition (IC50) was determined. GraphPad Prism 6 software was also used to perform all statistical analyses. […] In all cases, p-values < 0.05 were considered statistically significant. The results are expressed as mean ± standard error of the mean (SEM).

[2] = Homo sapiens, Neutrophil, read-out: Inhibitory activity (% ± SEM), neutrophils’ oxidative burst

Row | SMILES | Higher 2-SC concentration that did not affect human neutrophils’ viability (human neutrophils) [µM] | IC50 ([1]; Homo sapiens, Neutrophil) [nM] | further results
1 | O=c1cc(/C=C/c2cccc(O)c2)oc2cccc(O)c12 [A7] | 6.25 |  | 
2 | O=c1cc(/C=C/c2ccc(O)c(O)c2)oc2cc(O)ccc12 [B8] | 25.00 | 700 ± 100 | 
3 | COc1ccc(/C=C/c2cc(=O)c3c(OC)cccc3o2)cc1OC [C3] | 50.00 |  | inhibition at 50 µM [1, 2]: 54 ± 4%
4 | O=c1cc(/C=C/c2ccc([N+](=O)[O-])cc2)oc2cccc(O)c12 [F2] | 12.50 |  | 
5 | O=c1cc(/C=C/c2ccc(O)cc2)oc2cc(O)ccc12 [B3] | 25.00 | 4100 ± 300 | 
6 | O=c1cc(/C=C/c2ccccc2O)oc2cccc(O)c12 [A8] | 25.00 |  | inhibition at 25 µM [1, 2]: < 30%
7 | COc1cc(OC)c2c(=O)cc(/C=C/c3ccc(OCc4ccccc4)c(OCc4ccccc4)c3)oc2c1 [D2] | 12.50 |  | 
8 | COc1ccc2c(=O)c(Br)c(/C=C/c3ccc(OC)c(OC)c3)oc2c1 [H3] | 12.50 |  | 
9 | Cc1ccc(/C=C/c2cc(=O)c3ccccc3o2)cc1 [E1] | 25.00 |  | 
10 | COc1ccc2c(=O)c(Br)c(/C=C/c3ccccc3)oc2c1 [H1] | 12.50 |  | 
11 | O=c1cc(/C=C/c2ccc(O)c(O)c2)oc2c(O)c(O)ccc12 [B12] | 12.50 | 900 ± 300 | 
12 | COc1cc(O)c2c(=O)cc(/C=C/c3ccc(O)cc3)oc2c1 [B5] | 6.25 |  | 
13 | O=c1cc(/C=C/c2ccc(O)c(O)c2)oc2cccc(O)c12 [B7] | 0.38 |  | Effect on human neutrophils’ viability (human neutrophils; 0.38 μM): no effect on the viability was observed; Inhibitory activity (% ± SEM), neutrophils’ oxidative burst ([1]; 0.38 µM (highest tested concentration)): did not show an inhibitory effect; inhibition at 0.38 µM ([1]; Homo sapiens, Neutrophil, 0.38 µM (highest tested concentration), read-out: Inhibitory activity (% ± SEM), neutrophils’ oxidative burst): < 30%
14 | O=c1cc(/C=C/c2ccc(OCc3ccccc3)c(OCc3ccccc3)c2)oc2ccccc12 [D1] | 12.50 |  | 
15 | O=c1cc(/C=C/c2cccc(O)c2)oc2ccccc12 [A6] | 100.00 |  | inhibition at 100 µM ([1]; Homo sapiens, Neutrophil, 100.00 µM (highest tested concentration), read-out: Inhibitory activity (% ± SEM), neutrophils’ oxidative burst): < 30%
16 | COc1cc(OC)c2c(=O)c(Br)c(/C=C/c3ccccc3)oc2c1 [H2] | 50.00 |  | inhibition at 50 µM [1, 2]: < 30%
17 | O=c1cc(/C=C/c2ccc(O)c(O)c2)oc2ccccc12 [B6] | 12.50 | 1000 ± 100 | Times more active than B1 (oxidative burst) ([1]; comparison of IC50 values with B1): ~7.5 times
18 | COc1ccc2c(=O)cc(/C=C/c3ccc(OC)c(OC)c3)oc2c1 [C4] | 37.50 | 24200 ± 300 | Times less active than C8 (oxidative burst) [1]: about 14 times

Row | SMILES | Higher 2-SC concentration that did not affect human neutrophils’ viability (human neutrophils) [µM] | IC50 ([1]; Homo sapiens, Neutrophil) [nM] | further results
19 | O=c1cc(/C=C/c2cccc(Cl)c2)oc2cccc(O)c12 [G1] | 12.50 |  | 
20 | O=c1c(O)c(-c2ccc(O)c(O)c2)oc2cc(O)cc(O)c12 [Quercetin, quercetin, reference compound] |  | 800 ± 100 | 
21 | COc1ccc(/C=C/c2cc(=O)c3ccc(OCc4ccccc4)c(OCc4ccccc4)c3o2)cc1OC [C7] | 25.00 |  | inhibition at 25 µM [1, 2]: < 30%
22 | O=c1cc(/C=C/c2ccc(Cl)c(Cl)c2)oc2cccc(O)c12 [G3] | 25.00 |  | inhibition at 25 µM [1, 2]: < 30%
23 | O=c1cc(/C=C/c2ccccc2)oc2ccccc12 [A1] | 75.00 |  | inhibition at 75 µM ([1]; Homo sapiens, Neutrophil, 75.00 µM (highest tested concentration), read-out: Inhibitory activity (% ± SEM), neutrophils’ oxidative burst): < 30%
24 | O=c1cc(/C=C/c2ccccc2)oc2cccc(O)c12 [A2] | 6.25 |  | 
25 | COc1ccc2c(=O)cc(/C=C/c3ccc(OCc4ccccc4)c(OCc4ccccc4)c3)oc2c1OC [D3] | 12.50 |  | 
26 | COc1cc(OC)c2c(=O)cc(/C=C/c3ccc(OC)c(OC)c3)oc2c1 [C5] | 75.00 |  | inhibition at 50 µM [1, 2]: 54 ± 2%
27 | O=c1cc(/C=C/c2c(Cl)cccc2Cl)oc2cccc(O)c12 [G4] | 25.00 |  | inhibition at 25 µM [1, 2]: < 30%
28 | O=c1cc(/C=C/c2ccc(O)cc2)oc2ccccc12 [B1] | 25.00 | 7500 ± 400 | Effect on total neutrophils’ population percentage (human neutrophils; 50.00 μM): affected the total neutrophils’ population percentage
29 | O=c1cc(/C=C/c2ccc(O)cc2)oc2cc(O)cc(O)c12 [B4] | 6.25 | 3100 ± 300 | 
30 | Cc1ccc(/C=C/c2cc(=O)c3c(O)cccc3o2)cc1 [E2] | 12.50 |  | 
31 | COc1ccc2c(=O)cc(/C=C/c3ccc(O)c(O)c3)oc2c1 [B10] | 6.25 | 1000 ± 100 | 
32 | COc1ccc2c(=O)cc(/C=C/c3ccc(O)c(O)c3)oc2c1OC [B13] | 12.50 | 1000 ± 200 | 
33 | COc1cc(OC)c2c(=O)cc(/C=C/c3ccc(O)c(O)c3)oc2c1 [B11] | 12.50 | 800 ± 100 | 
34 | O=c1cc(/C=C/c2ccc(O)c(O)c2)oc2cc(O)cc(O)c12 [B9] | 12.50 | 800 ± 100 | 
35 | COc1cccc2oc(/C=C/c3ccccc3)cc(=O)c12 [A5] | 6.25 |  | 
36 | COc1ccc(/C=C/c2cc(=O)c3ccc(OC)c(OC)c3o2)cc1OC [C6] | 37.50 | 20000 ± 2000 | Times less active than C8 (oxidative burst) [1]: ~17 times
